Target: T1, human TRPA1 (hTRPA1) (Homo sapiens, UniProt O75762)
T1 construct: wild-type hTRPA1 in HEK cells
Assay: Fura-2 Ca2+ imaging and whole-cell patch clamp in HEK-hTRPA1 cells; C621S and F669M mutants reduce response
Assay type: cell-based

T1 sequence (O75762 whole entry): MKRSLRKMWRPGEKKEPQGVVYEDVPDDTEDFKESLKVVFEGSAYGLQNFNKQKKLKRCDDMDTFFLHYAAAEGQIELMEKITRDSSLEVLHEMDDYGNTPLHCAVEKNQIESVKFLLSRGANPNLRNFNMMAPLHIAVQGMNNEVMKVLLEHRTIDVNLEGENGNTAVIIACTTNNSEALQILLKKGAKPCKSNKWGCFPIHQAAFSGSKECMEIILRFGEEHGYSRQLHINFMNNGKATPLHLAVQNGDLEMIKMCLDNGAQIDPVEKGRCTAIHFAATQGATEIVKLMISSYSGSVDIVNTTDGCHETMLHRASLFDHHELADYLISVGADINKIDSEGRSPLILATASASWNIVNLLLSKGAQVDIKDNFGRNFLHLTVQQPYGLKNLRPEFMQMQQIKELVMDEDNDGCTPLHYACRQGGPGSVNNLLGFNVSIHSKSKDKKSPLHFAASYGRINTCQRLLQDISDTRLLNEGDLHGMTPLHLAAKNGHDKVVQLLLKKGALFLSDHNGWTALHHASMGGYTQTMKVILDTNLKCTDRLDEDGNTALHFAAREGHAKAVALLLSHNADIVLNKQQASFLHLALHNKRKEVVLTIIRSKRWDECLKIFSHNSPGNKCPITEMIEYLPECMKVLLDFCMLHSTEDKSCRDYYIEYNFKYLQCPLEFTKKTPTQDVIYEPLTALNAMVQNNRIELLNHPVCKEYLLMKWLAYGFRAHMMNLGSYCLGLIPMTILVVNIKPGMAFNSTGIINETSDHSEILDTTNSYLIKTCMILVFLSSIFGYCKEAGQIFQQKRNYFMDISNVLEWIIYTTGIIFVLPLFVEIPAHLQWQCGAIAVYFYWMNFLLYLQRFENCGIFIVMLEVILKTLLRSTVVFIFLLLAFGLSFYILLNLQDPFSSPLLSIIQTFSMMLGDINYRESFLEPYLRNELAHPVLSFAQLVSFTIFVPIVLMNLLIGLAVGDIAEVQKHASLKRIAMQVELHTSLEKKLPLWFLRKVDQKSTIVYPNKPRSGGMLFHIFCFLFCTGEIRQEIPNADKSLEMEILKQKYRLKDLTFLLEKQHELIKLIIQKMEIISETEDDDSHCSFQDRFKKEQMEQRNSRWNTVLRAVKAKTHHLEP

Question: For `COCCCN(C(=O)CCl)c1nc(-c2ccc(OC)cc2)cs1` [JT010], which EC50 is on record?
Answer: ~10 nM

From PMC9695908, “Potent Activation of Human but Not Mouse TRPA1 by JT010” (International Journal of Molecular Sciences, 2022)
